{
  "source": "patent US20090197955A1",
  "about": "“METHODS OF IMPROVING DHA DEPOSITION AND RELATED FUNCTION AND/OR DEVELOPMENT” (Monsanto Company, priority 2008, published 2009)",
  "assay": "Fatty acid composition of pig tissues (ham, loin, belly, skin) after feeding SDA ethyl ester diets, 35 day study",
  "assay_type": "in vivo, pigs",
  "conditions": "35 days",
  "protocol": "A 35 day study was conducted to determine whether pigs fed a diet containing SDA could enhance tissues with improved fatty acid profiles including increased levels of SDA, EPA, and DHA.\nFour test diets (Treatment 2, 3, 4, and 5) with SDA ethyl ester substituted for corn oil to provide 0.2, 0.4, 0.6 and 0.8% (w/w SDA active ingredient, as-is basis) were fed ad libitum to one pen of four pigs throughout the 35-day test period Table 4). All diets were fed in meal form. Treatment 6 was fed the same diet as Treatment 5, but for a duration of only 21 days.\nAll pigs were individually weighed at initiation of the acclimation and test period, and immediately prior to slaughter. Feed consumption per pen was recorded. Upon completion of the feeding period, pigs were slaughtered for tissue collection and carcass evaluation. Pigs were slaughtered using standard industry practices (electrical stunning, exsanguinations, scalding, dehairing and evisceration). Live weights prior to slaughter and hot carcass weights were recorded. The left side of each carcass was fabricated and samples were obtained from the loin (longissimus muscle), ham (semimembranosus muscle) and belly (a section from the center of the belly) for sensory evaluation, fatty acid, and proximate analysis. Prior to removing the sample for sensory and fatty and proximate analysis from the belly the firmness of the belly was evaluated using a flop test. At 24 hr postmortem fat thickness (10th rib), loin eye area (10th rib), visual color, firmness and marbling, Minolta color (L*a*b*), pH, and drip loss were measured.\nIn order to evaluate the fatty acid composition of pig tissues (loin, ham, skin, and belly), samples were stored at −80° C. until evaluation. After thawing, ˜22 g of fresh pig tissue was chopped into small pieces and thoroughly mixed before 10 g was sub sampled and lyophilized. Lyophilized samples were ground in 30 ml Sarstedt tubes with two ball bearings using a Mega Grinder. Ground samples (loin and ham: 50 mg; skin: 100 mg; belly: 150 mg; diet: 500 mg) were directly methylated with sulfuric acid in methanol (loin and ham: 1 mL; skin: 3 mL; belly: 10 mL; diet: 1.5 mL) sealed in the presence of butylated hydroxytoluene (50 mg BHT in 100 ml reagent) in reflux conditions of 90° C. Resultant fatty acid methyl esters (FAME's) were separated by capillary gas chromatography (GC) and detected by flame ionization detector (FID). The column used was a Supelco Omegawax 250 capillary column with dimensions of 30 m×0.25 mm×0.25 μm film thickness. The run time was 32 minutes. Peaks were identified based on their relative retention time compared to a FAME reference mixture. Quantification was achieved by using an internal standard (c15:0 triacylglyceride (TAG) for pig tissue samples and c17:0 TAG for diet samples). Results are reported as FA g/100 g fat with theoretical response correction.\nFor Table 6 below, each value represents g/100 g total fatty acids a mean of 4 samples (1 sample from each of 4 pigs) per treatment.",
  "data": [
    {"smiles": "CC/C=C\\C/C=C\\C/C=C\\C/C=C\\CCCCC(=O)O", "note": "[SDA, stearidonic acid]", "values": [
      {"measurement": "12:0, ham", "setting": "0.2% SDA feed", "value": 0.06, "unit": "g FA per 100 g fat"},
      {"measurement": "14:0, ham", "setting": "0.2% SDA feed", "value": 1.06, "unit": "g FA per 100 g fat"},
      {"measurement": "16:0, ham", "setting": "0.2% SDA feed", "value": 21.24, "unit": "g FA per 100 g fat"},
      {"measurement": "16:1 n-7, ham", "setting": "0.2% SDA feed", "value": 3.58, "unit": "g FA per 100 g fat"},
      {"measurement": "16:1 n-9, ham", "setting": "0.2% SDA feed", "value": 0.26, "unit": "g FA per 100 g fat"},
      {"measurement": "18:0, ham", "setting": "0.2% SDA feed", "value": 10.13, "unit": "g FA per 100 g fat"},
      {"measurement": "18:1 n-7, ham", "setting": "0.2% SDA feed", "value": 4.55, "unit": "g FA per 100 g fat"},
      {"measurement": "18:1 n-9, ham", "setting": "0.2% SDA feed", "value": 40.91, "unit": "g FA per 100 g fat"},
      {"measurement": "18:2 n-6 (LA), ham", "setting": "0.2% SDA feed", "value": 8.86, "unit": "g FA per 100 g fat"},
      {"measurement": "18:3 n-3 (ALA), ham", "setting": "0.2% SDA feed", "value": 0.20, "unit": "g FA per 100 g fat"},
      {"measurement": "18:3 n-6 (GLA), ham", "setting": "0.2% SDA feed", "value": 0.08, "unit": "g FA per 100 g fat"},
      {"measurement": "18:4 n-3 (SDA), ham", "setting": "0.2% SDA feed", "value": 0.03, "unit": "g FA per 100 g fat"},
      {"measurement": "20:0, ham", "setting": "0.2% SDA feed", "value": 0.16, "unit": "g FA per 100 g fat"},
      {"measurement": "20:1 n-7, ham", "setting": "0.2% SDA feed", "value": 0.04, "unit": "g FA per 100 g fat"},
      {"measurement": "20:1 n-9, ham", "setting": "0.2% SDA feed", "value": 0.69, "unit": "g FA per 100 g fat"},
      {"measurement": "20:1 n-11, ham", "setting": "0.2% SDA feed", "value": 0.04, "unit": "g FA per 100 g fat"},
      {"measurement": "20:2 n-6, ham", "setting": "0.2% SDA feed", "value": 0.38, "unit": "g FA per 100 g fat"},
      {"measurement": "20:3 n-3, ham", "setting": "0.2% SDA feed", "value": 0.03, "unit": "g FA per 100 g fat"},
      {"measurement": "20:3 n-6 (DGLA), ham", "setting": "0.2% SDA feed", "value": 0.29, "unit": "g FA per 100 g fat"},
      {"measurement": "20:4 n-3 (ETA), ham", "setting": "0.2% SDA feed", "value": 0.09, "unit": "g FA per 100 g fat"},
      {"measurement": "20:4 n-6 (AA), ham", "setting": "0.2% SDA feed", "value": 1.96, "unit": "g FA per 100 g fat"},
      {"measurement": "20:5 n-3 (EPA), ham", "setting": "0.2% SDA feed", "value": 0.17, "unit": "g FA per 100 g fat"},
      {"measurement": "22:0, ham", "setting": "0.2% SDA feed", "value": 0.03, "unit": "g FA per 100 g fat"},
      {"measurement": "22:1 n-9, ham", "setting": "0.2% SDA feed", "value": 0.00, "unit": "g FA per 100 g fat"},
      {"measurement": "22:1 n-11, ham", "setting": "0.2% SDA feed", "value": 0.00, "unit": "g FA per 100 g fat"},
      {"measurement": "22:1 n-13, ham", "setting": "0.2% SDA feed", "value": 0.00, "unit": "g FA per 100 g fat"},
      {"measurement": "22:2 n-7, ham", "setting": "0.2% SDA feed", "value": 0.00, "unit": "g FA per 100 g fat"},
      {"measurement": "22:3 n-6, ham", "setting": "0.2% SDA feed", "value": 0.24, "unit": "g FA per 100 g fat"},
      {"measurement": "22:5 n-3 (DPA), ham", "setting": "0.2% SDA feed", "value": 0.39, "unit": "g FA per 100 g fat"},
      {"measurement": "22:6 n-3 (DHA), ham", "setting": "0.2% SDA feed", "value": 0.09, "unit": "g FA per 100 g fat"},
      {"measurement": "24:1 n-9, ham", "setting": "0.2% SDA feed", "value": 0.04, "unit": "g FA per 100 g fat"},
      {"measurement": "Total PUFA, ham", "setting": "0.2% SDA feed", "value": 12.82, "unit": "g FA per 100 g fat"},
      {"measurement": "Total monoenes, ham", "setting": "0.2% SDA feed", "value": 50.11, "unit": "g FA per 100 g fat"},
      {"measurement": "Total n-3, ham", "setting": "0.2% SDA feed", "value": 1.01, "unit": "g FA per 100 g fat"},
      {"measurement": "Total n-6, ham", "setting": "0.2% SDA feed", "value": 11.81, "unit": "g FA per 100 g fat"},
      {"measurement": "Total saturates, ham", "setting": "0.2% SDA feed", "value": 32.68, "unit": "g FA per 100 g fat"},
      {"measurement": "n-6/n-3, ham", "setting": "0.2% SDA feed", "value": 11.69},
      {"measurement": "DHA enrichment in ham", "setting": "0.2-0.8% SDA", "value": "enriched in ham in a dose dependent manner"},
      {"measurement": "DPA enrichment in loin and ham tissues", "setting": "0.2-0.8% SDA", "value": "enriched in loin and ham tissues in a dose dependent manner"},
      {"measurement": "SDA, ETA and EPA enrichment in belly, loin, ham and skin tissues", "setting": "0.2-0.8% SDA", "value": "enriched in belly, loin, ham, and skin tissues in a dose dependent manner"},
      {"measurement": "12:0, ham", "setting": "0.4% SDA feed", "value": 0.06, "unit": "g FA per 100 g fat"},
      {"measurement": "14:0, ham", "setting": "0.4% SDA feed", "value": 1.10, "unit": "g FA per 100 g fat"},
      {"measurement": "16:0, ham", "setting": "0.4% SDA feed", "value": 21.45, "unit": "g FA per 100 g fat"},
      {"measurement": "16:1 n-7, ham", "setting": "0.4% SDA feed", "value": 3.45, "unit": "g FA per 100 g fat"},
      {"measurement": "16:1 n-9, ham", "setting": "0.4% SDA feed", "value": 0.25, "unit": "g FA per 100 g fat"},
      {"measurement": "18:0, ham", "setting": "0.4% SDA feed", "value": 10.74, "unit": "g FA per 100 g fat"},
      {"measurement": "18:1 n-7, ham", "setting": "0.4% SDA feed", "value": 4.28, "unit": "g FA per 100 g fat"},
      {"measurement": "18:1 n-9, ham", "setting": "0.4% SDA feed", "value": 39.94, "unit": "g FA per 100 g fat"},
      {"measurement": "18:2 n-6 (LA), ham", "setting": "0.4% SDA feed", "value": 9.18, "unit": "g FA per 100 g fat"},
      {"measurement": "18:3 n-3 (ALA), ham", "setting": "0.4% SDA feed", "value": 0.26, "unit": "g FA per 100 g fat"},
      {"measurement": "18:3 n-6 (GLA), ham", "setting": "0.4% SDA feed", "value": 0.09, "unit": "g FA per 100 g fat"},
      {"measurement": "18:4 n-3 (SDA), ham", "setting": "0.4% SDA feed", "value": 0.03, "unit": "g FA per 100 g fat"},
      {"measurement": "20:0, ham", "setting": "0.4% SDA feed", "value": 0.16, "unit": "g FA per 100 g fat"},
      {"measurement": "20:1 n-7, ham", "setting": "0.4% SDA feed", "value": 0.04, "unit": "g FA per 100 g fat"},
      {"measurement": "20:1 n-9, ham", "setting": "0.4% SDA feed", "value": 0.66, "unit": "g FA per 100 g fat"},
      {"measurement": "20:1 n-11, ham", "setting": "0.4% SDA feed", "value": 0.04, "unit": "g FA per 100 g fat"},
      {"measurement": "20:2 n-6, ham", "setting": "0.4% SDA feed", "value": 0.36, "unit": "g FA per 100 g fat"},
      {"measurement": "20:3 n-3, ham", "setting": "0.4% SDA feed", "value": 0.04, "unit": "g FA per 100 g fat"},
      {"measurement": "20:3 n-6 (DGLA), ham", "setting": "0.4% SDA feed", "value": 0.32, "unit": "g FA per 100 g fat"},
      {"measurement": "20:4 n-3 (ETA), ham", "setting": "0.4% SDA feed", "value": 0.14, "unit": "g FA per 100 g fat"},
      {"measurement": "20:4 n-6 (AA), ham", "setting": "0.4% SDA feed", "value": 1.90, "unit": "g FA per 100 g fat"},
      {"measurement": "20:5 n-3 (EPA), ham", "setting": "0.4% SDA feed", "value": 0.23, "unit": "g FA per 100 g fat"},
      {"measurement": "22:0, ham", "setting": "0.4% SDA feed", "value": 0.04, "unit": "g FA per 100 g fat"},
      {"measurement": "22:1 n-9, ham", "setting": "0.4% SDA feed", "value": 0.01, "unit": "g FA per 100 g fat"},
      {"measurement": "22:1 n-11, ham", "setting": "0.4% SDA feed", "value": 0.00, "unit": "g FA per 100 g fat"},
      {"measurement": "22:1 n-13, ham", "setting": "0.4% SDA feed", "value": 0.00, "unit": "g FA per 100 g fat"},
      {"measurement": "22:2 n-7, ham", "setting": "0.4% SDA feed", "value": 0.00, "unit": "g FA per 100 g fat"},
      {"measurement": "22:3 n-6, ham", "setting": "0.4% SDA feed", "value": 0.26, "unit": "g FA per 100 g fat"},
      {"measurement": "22:5 n-3 (DPA), ham", "setting": "0.4% SDA feed", "value": 0.44, "unit": "g FA per 100 g fat"},
      {"measurement": "22:6 n-3 (DHA), ham", "setting": "0.4% SDA feed", "value": 0.08, "unit": "g FA per 100 g fat"}
    ]}
  ]
}
